Source: US9302999B2, “Substituted triazoles as herbicides” (E. I. DU PONT DE NEMOURS AND COMPANY, priority 2012, dated 2016)

Key:
Format in all cases: in vivo
rice (Oryza sativa) = assay: Test B flooded paddy: rice; conditions: Flood; 250 g ai/ha; applied to paddy water at 2-leaf stage; visually evaluated after 13 to 15 days
Experimental: Seeds selected from rice (Oryza sativa), sedge, umbrella (small-flower umbrella sedge Cyperus difformis), ducksalad (Heteranthera limosa), and barnyardgrass (Echinochloa crus-galli) were grown to the 2-leaf stage for testing. At time of treatment, test pots were flooded to 3 cm above the soil surface, treated by application of test compounds directly to the paddy water, and then maintained at that water depth for the duration of the test.
Treated plants and controls were maintained in a greenhouse for 13 to 15 days, after which time all species were compared to controls and visually evaluated. Plant response ratings, summarized in Table B, are based on a scale of 0 to 100 where 0 is no effect and 100 is complete control. A dash (-) response means no test result.

corn (Zea mays) = assay: Test A pre-/postemergence: corn; conditions: for Corn plant response rating: Postemergence; for Plant response rating, Corn: Preemergence
Method in brief: (§1)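 Soil medium was loam blended with sand; treatments pre- and postemergence were applied concurrently, postemergence at one- to two-leaf stage. Approximately ten days in greenhouse preceded visual comparison with untreated controls, scored 0 (no effect) to 100 (complete control).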

[1] = system: foxtail, giant (giant foxtail, Setaria faberii); assay: Test A pre-/postemergence: foxtail, giant; conditions: for Foxtail, Giant plant response rating: Postemergence; for Plant response rating, Foxtail, Giant: Preemergence
Method in brief: as §1

[2] = system: ducksalad (Heteranthera limosa); assay: Test B flooded paddy: ducksalad; conditions: Flood; 250 g ai/ha; applied to paddy water at 2-leaf stage; visually evaluated after 13 to 15 days
Method in brief: (§2)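 Visual ratings on a 0–100 scale, where 0 means no effect and 100 means complete control, were assigned by comparison with controls 13 to 15 days after treatment. Compounds went into paddy water over 2-leaf plants flooded to 3 cm.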

[3] = system: sedge, umbrella (small-flower umbrella sedge Cyperus difformis); assay: Test B flooded paddy: sedge, umbrella; conditions: Flood; 250 g ai/ha; applied to paddy water at 2-leaf stage; visually evaluated after 13 to 15 days
Method in brief: as §2

[4] = system: morningglory (Ipomoea spp.); assay: Test A pre-/postemergence: morningglory
Method in brief: as §1

[5] = system: barnyardgrass (Echinochloa crus-galli); assay: Test A pre-/postemergence: barnyardgrass; conditions: for Barnyardgrass plant response rating: Postemergence; for Plant response rating, Barnyardgrass: Preemergence
Method in brief: as §1

[6] = system: velvetleaf (Abutilon theophrasti); assay: Test A pre-/postemergence: velvetleaf
Method in brief: as §1

[7] = system: pigweed (Amaranthus retroflexus); assay: Test A pre-/postemergence: pigweed
Method in brief: as §1

[8] = system: crabgrass, large (large crabgrass, Digitaria sanguinalis); assay: Test A pre-/postemergence: crabgrass, large; conditions: for Crabgrass, Large plant response rating: Postemergence; for Plant response rating, Crabgrass, Large: Preemergence
Method in brief: as §1

[9] = system: wheat (Triticum aestivum); assay: Test A pre-/postemergence: wheat
Method in brief: as §1

[10] = system: barnyardgrass (Echinochloa crus-galli); assay: Test B flooded paddy: barnyardgrass; conditions: Flood; 250 g ai/ha; applied to paddy water at 2-leaf stage; visually evaluated after 13 to 15 days
Method in brief: as §2

[11] = 125 g ai/ha, 0 to 100 scale, 0 is no effect, 100 is complete control
[12] = 500 g ai/ha, visual rating on 0 to 100 scale (0 no effect, 100 complete control), approximately ten days
[13] = 125 g ai/ha, 0 to 100 scale (0 no effect, 100 complete control)
[14] = 500 g ai/ha, 0 to 100 scale, 0 is no effect, 100 is complete control
[15] = Postemergence, 125 g ai/ha, 0 to 100 scale, 0 is no effect, 100 is complete control
[16] = Postemergence, 500 g ai/ha, visual rating on 0 to 100 scale (0 no effect, 100 complete control), approximately ten days
[17] = Preemergence, 125 g ai/ha, 0 to 100 scale (0 no effect, 100 complete control)
[18] = Preemergence, 500 g ai/ha, 0 to 100 scale, 0 is no effect, 100 is complete control
[19] = 125 g ai/ha, 0 to 100 scale where 0 is no effect and 100 is complete control
[20] = 500 g ai/ha, 0 to 100 scale (0 no effect, 100 complete control)
[21] = Preemergence, 125 g ai/ha, 0 to 100 scale where 0 is no effect and 100 is complete control
[22] = Preemergence, 500 g ai/ha, 0 to 100 scale (0 no effect, 100 complete control)

SMILES	Plant response rating, Rice (0 to 100 scale, 0 is no effect, 100 is complete control) (rice (Oryza sativa))	Corn plant response rating (corn (Zea mays); [11])	Corn plant response rating (corn (Zea mays); [12])	Foxtail, Giant plant response rating [1, 11]	Foxtail, Giant plant response rating [1, 12]	Plant response rating, Ducksalad (0 to 100 scale, 0 is no effect, 100 is complete control) [2]	Plant response rating, Sedge, Umbrella (0 to 100 scale, 0 is no effect, 100 is complete control) [3]	Morningglory plant response rating [4, 16]	Barnyardgrass plant response rating [5, 11]	Barnyardgrass plant response rating [5, 12]	Velvetleaf plant response rating [6, 16]	Pigweed plant response rating [7, 16]	Crabgrass, Large plant response rating [8, 11]	Crabgrass, Large plant response rating [8, 12]	Wheat plant response rating [9, 16]	Plant response rating, Barnyardgrass (0 to 100 scale, 0 is no effect, 100 is complete control) [10]	Plant response rating, Corn (corn (Zea mays); [19])	Plant response rating, Corn (corn (Zea mays); [20])	Plant response rating, Foxtail, Giant [1, 19]	Plant response rating, Foxtail, Giant [1, 20]	also measured
Cc1cnccc1Oc1nn(-c2ccc(F)cc2)nc1C [Compound 87]	0	0	0	0	0	0	50	0	0	0	0	0	0	0	0	0					Plant response rating, Corn (corn (Zea mays); [13]): 0; Plant response rating, Corn (corn (Zea mays); [14]): 0; Plant response rating, Foxtail, Giant [1, 13]: 0; Plant response rating, Foxtail, Giant [1, 14]: 0; Morningglory plant response rating [4, 15]: 0; Plant response rating, Morningglory [4, 17]: 0; Plant response rating, Morningglory [4, 18]: 0; Plant response rating, Barnyardgrass [5, 13]: 0; Plant response rating, Barnyardgrass [5, 14]: 0; Velvetleaf plant response rating [6, 15]: 0; Plant response rating, Velvetleaf [6, 17]: 0; Plant response rating, Velvetleaf [6, 18]: 0; Pigweed plant response rating [7, 15]: 0; Plant response rating, Pigweed [7, 17]: 0; Plant response rating, Pigweed [7, 18]: 0; Plant response rating, Crabgrass, Large [8, 13]: 0; Plant response rating, Crabgrass, Large [8, 14]: 0; Wheat plant response rating [9, 15]: 0; Plant response rating, Wheat [9, 17]: 0; Plant response rating, Wheat [9, 18]: 0
Cc1cc(Oc2nn(-c3ccc(F)cc3)nc2C)ccn1 [Compound 135]	0	10	20	0	10	0	0	10	0	10	30	50	10	20	0	0	0	0	0	0	Plant response rating, Morningglory [4, 15]: 0; Plant response rating, Morningglory [4, 21]: 0; Plant response rating, Morningglory [4, 22]: 0; Plant response rating, Barnyardgrass [5, 19]: 0; Plant response rating, Barnyardgrass [5, 20]: 0; Plant response rating, Velvetleaf [6, 15]: 10; Plant response rating, Velvetleaf [6, 21]: 0; Plant response rating, Velvetleaf [6, 22]: 0; Plant response rating, Pigweed [7, 15]: 20; Plant response rating, Pigweed [7, 21]: 0; Plant response rating, Pigweed [7, 22]: 0; Plant response rating, Crabgrass, Large [8, 19]: 0; Plant response rating, Crabgrass, Large [8, 20]: 0; Plant response rating, Wheat [9, 15]: 0; Plant response rating, Wheat [9, 21]: 0; Plant response rating, Wheat [9, 22]: 0
Cc1nn(-c2ccc(F)c(F)c2)nc1Cc1ccnc(C(F)F)c1 [Compound 136]	35	20	40	90	90	75	85	100	60	90	100	100	60	90	30	45	0	10	100	100	Plant response rating, Morningglory [4, 15]: 70; Plant response rating, Morningglory [4, 21]: 20; Plant response rating, Morningglory [4, 22]: 60; Plant response rating, Barnyardgrass [5, 19]: 70; Plant response rating, Barnyardgrass [5, 20]: 100; Plant response rating, Velvetleaf [6, 15]: 90; Plant response rating, Velvetleaf [6, 21]: 30; Plant response rating, Velvetleaf [6, 22]: 60; Plant response rating, Pigweed [7, 15]: 100; Plant response rating, Pigweed [7, 21]: 90; Plant response rating, Pigweed [7, 22]: 90; Plant response rating, Crabgrass, Large [8, 19]: 80; Plant response rating, Crabgrass, Large [8, 20]: 100; Plant response rating, Wheat [9, 15]: 30; Plant response rating, Wheat [9, 21]: 0; Plant response rating, Wheat [9, 22]: 10
